pIC50: −log10 of the molar value. Where “and” joins values, the source holds several entries; their conditions need not be identical. Identical values can stand only once.
Test system: 855422-203-R-J1-PDC complex spheroids, viability
Assay: Anticancer human tumor 855422-203-R-J1-PDC patient-derived bladder carcinoma cell line growth inhibition [CLK]
Conditions: for viability, T/C: stronger effect = lower value
Summary of the method: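 Multi-cell-type spheroids combined patient-derived tumor cells with HUVEC endothelial cells and human mesenchymal stem cells. Paired agents were dosed in half-log steps down from about clinical Cmax, or from 10 microM where Cmax was unknown.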

[1] = curve of first compound, second compound 0.0316 µM
[2] = curve of first compound, second compound 0.1 µM
[3] = curve of first compound, second compound 0.316 µM
[4] = curve of first compound, second compound 1 µM
[5] = curve of first compound, second compound 3.16 µM
[6] = curve of first compound, second compound 10 µM
[7] = second compound 0.0316 µM, first compound 0.0316 µM
[8] = second compound 0.0316 µM, first compound 0.1 µM
[9] = second compound 0.0316 µM, first compound 0.316 µM
[10] = second compound 0.0316 µM, first compound 1 µM
[11] = second compound 0.0316 µM, first compound 3.16 µM
[12] = second compound 0.0316 µM, first compound 10 µM
[13] = second compound 0.1 µM, first compound 0.0316 µM
[14] = second compound 0.1 µM, first compound 0.1 µM
[15] = second compound 0.1 µM, first compound 0.316 µM
[16] = second compound 0.1 µM, first compound 1 µM
[17] = second compound 0.1 µM, first compound 3.16 µM
[18] = second compound 0.1 µM, first compound 10 µM
[19] = second compound 0.316 µM, first compound 0.0316 µM
[20] = second compound 0.316 µM, first compound 0.1 µM
[21] = second compound 0.316 µM, first compound 0.316 µM
[22] = second compound 0.316 µM, first compound 1 µM
[23] = second compound 0.316 µM, first compound 3.16 µM
[24] = second compound 0.316 µM, first compound 10 µM
[25] = second compound 1 µM, first compound 0.0316 µM
[26] = second compound 1 µM, first compound 0.1 µM
[27] = second compound 1 µM, first compound 0.316 µM
[28] = second compound 1 µM, first compound 1 µM
[29] = second compound 1 µM, first compound 3.16 µM
[30] = second compound 1 µM, first compound 10 µM
[31] = second compound 3.16 µM, first compound 0.0316 µM
[32] = second compound 3.16 µM, first compound 0.1 µM
[33] = second compound 3.16 µM, first compound 0.316 µM
[34] = second compound 3.16 µM, first compound 1 µM
[35] = second compound 3.16 µM, first compound 3.16 µM
[36] = second compound 3.16 µM, first compound 10 µM
[37] = second compound 10 µM, first compound 0.0316 µM
[38] = second compound 10 µM, first compound 0.1 µM
[39] = second compound 10 µM, first compound 0.316 µM
[40] = second compound 10 µM, first compound 1 µM
[41] = second compound 10 µM, first compound 3.16 µM
[42] = second compound 10 µM, first compound 10 µM
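Note: spheroids exposed to drugs for seven days before readout.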
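Throughout, for viability, T/C: 100% = DMSO vehicle control wells.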

`O=c1[nH]cc(F)c(=O)[nH]1` + CNC(=O)c1ccc(Nc2nc(OC3CCCC3)c3c(-c4ccc5nc(C)oc5c4)c[nH]c3n2)c(OC)c1 gave a pIC50 [1] of 5.04, a pIC50 [2] of 6.28 and a pIC50 [3] of over 7.50. It also gave a pIC50 [4] of over 7.50, a pIC50 [5] of over 7.50 and a pIC50 [6] of over 7.50. The viability, T/C [7] was 135%, the viability, T/C [8] was 119% and the viability, T/C [9] was 98.4%. For the same compound, the viability, T/C [10] was 72.3%, the viability, T/C [11] was 67.5% and the viability, T/C [12] was 47.9%. It also gave a viability, T/C [13] of 65.5%, a viability, T/C [14] of 65.7% and a viability, T/C [15] of 56.4%. The viability, T/C [16] was 40.3%, the viability, T/C [17] was 40.8% and the viability, T/C [18] was 44.9%. For the same compound, the viability, T/C [19] was 26.4%, the viability, T/C [20] was 22.8% and the viability, T/C [21] was 22.1%. The viability, T/C [22] was 18.4%, the viability, T/C [23] was 19.7% and the viability, T/C [24] was 18.9%. It also gave a viability, T/C [25] of 23.3%, a viability, T/C [26] of 23.9% and a viability, T/C [27] of 27.6%. The viability, T/C [28] was 17.3%, the viability, T/C [29] was 14.5% and the viability, T/C [30] was 17.9%. The viability, T/C [31] was 25.1%, the viability, T/C [32] was 23.8% and the viability, T/C [33] was 22.1%. For the same compound, the viability, T/C [34] was 16.3%, the viability, T/C [35] was 12.7% and the viability, T/C [36] was 14.7%. For the same compound, the viability, T/C [37] was 21.5%, the viability, T/C [38] was 23.3% and the viability, T/C [39] was 20.2%. The viability, T/C [40] was 17.9%, the viability, T/C [41] was 14.7% and the viability, T/C [42] was 13.6%.

In the case of `CC(=O)O[C@H]1C(=O)[C@@]2(C)[C@H]([C@H](OC(=O)c3ccccc3)[C@]3(O)C[C@H](OC(=O)[C@H](O)[C@@H](NC(=O)c4ccccc4)c4ccccc4)C(C)=C1C3(C)C)[C@]1(OC(C)=O)CO[C@@H]1C[C@@H]2O`, the viability, T/C (compound 0.0316 µM) was 7.73% and 9%, the viability, T/C (compound 0.1 µM) was 9.43% and 8.68% and the viability, T/C (compound 0.316 µM) was 9.33% and 9.1%. The viability, T/C (compound 1 µM) was 8.48% and 7.37%, the viability, T/C (compound 3.16 µM) was 8.93% and 7.1% and the viability, T/C (compound 10 µM) was 9.93% and 9.02%. It also gave a pIC50 (curve of compound) of over 7.50.

`CCCS(=O)(=O)Nc1ccc(F)c(C(=O)c2c[nH]c3ncc(-c4ccc(Cl)cc4)cc23)c1F` + CN1CCN(c2cc(C(=O)Nc3cc4cc(-c5cnn(C)c5)ccc4cn3)ccn2)CC1 gave a pIC50 [1] of 5.32, a pIC50 [2] of 5.30 and a pIC50 [3] of over 7.50. For the same compound, the pIC50 [4] was over 7.50, the pIC50 [5] was over 7.50 and the pIC50 [6] was over 7.50. It also gave a viability, T/C [7] of 83.9%, a viability, T/C [8] of 88.1% and a viability, T/C [9] of 103%. It also gave a viability, T/C [10] of 106%, a viability, T/C [11] of 76.5% and a viability, T/C [12] of 3.42%. It also gave a viability, T/C [13] of 74.2%, a viability, T/C [14] of 85.5% and a viability, T/C [15] of 87.9%. For the same compound, the viability, T/C [16] was 86.5%, the viability, T/C [17] was 81.8% and the viability, T/C [18] was 2.76%. The viability, T/C [19] was 6.38%, the viability, T/C [20] was 8.19% and the viability, T/C [21] was 9.52%. It also gave a viability, T/C [22] of 7.73%, a viability, T/C [23] of 6.35% and a viability, T/C [24] of 1.15%. For the same compound, the viability, T/C [25] was 0.16%, the viability, T/C [26] was 0.18% and the viability, T/C [27] was 0.46%. For the same compound, the viability, T/C [28] was 0.19%, the viability, T/C [29] was 0.19% and the viability, T/C [30] was 0.08%. It also gave a viability, T/C [31] of 0.34%, a viability, T/C [32] of 0.68% and a viability, T/C [33] of 0.32%. For the same compound, the viability, T/C [34] was 0.46%, the viability, T/C [35] was 1.09% and the viability, T/C [36] was 0.77%. For the same compound, the viability, T/C [37] was 0.23%, the viability, T/C [38] was 0.51% and the viability, T/C [39] was 0.21%. For the same compound, the viability, T/C [40] was 0.35%, the viability, T/C [41] was 0.5% and the viability, T/C [42] was 0.29%.
